26 molecules from publication PMC10478600, “Aryl derivatives of 3H-1,2-benzoxaphosphepine 2-oxides as inhibitors of cancer-related carbonic anhydrase isoforms IX and XII” (Journal of Enzyme Inhibition and Medicinal Chemistry, 2023) can be followed below.

In assay [1] the target is T1, CA II (Homo sapiens, UniProt P00918).
T1 construct: gene CA2; recombinant
As to the kind of experiment: stopped-flow CO2 hydrase assay. It counts as biochemical. To be noted: read-out: KI (μM)^a^,^b / CA I. The source says:
stopped-flow CO2 hydrase assay on CA II

Assay [2] deals with T2, CA I (Homo sapiens, UniProt P00915).
T2 construct: gene CA1; recombinant
As to the kind of experiment: stopped-flow CO2 hydrase assay. To be noted: read-out: KI (μM)^a^,^b / CA I. It counts as biochemical. From the text: stopped-flow CO2 hydrase assay on CA I

Assay [3] addresses T2, CA I. Briefly: biochemical. Set-up: stopped-flow CO2 hydration assay of recombinant human CA isoforms, inhibition constant. To be noted: 6 h incubation. On the procedure: (§1) The CA-catalysed CO2 hydration activity was assayed by using an applied photophysics stopped-flow apparatus as reported in previous papers from our group. All CA isoforms were recombinant proteins, obtained as reported earlier. The newly synthesised compounds 7–10 were investigated for their CA inhibition activity against four pharmacologically relevant human CA isoforms—the ubiquitous cytosolic CA I and II as well as the cancer-associated CA IX and XII. In this study, CA I and CA II are considered off-target isoforms, that were tested in order to explore the selectivity of inhibitors towards the CA IX and CA XII isoforms. The clinically utilised acetazolamide (AAZ) was used as a reference drug. The following structure-activity relationship (SAR) can be deduced from the inhibition data reported in Table 1: It is worthwhile to underline here that a 6-h incubation of the enzyme and each compound 7–10 solutions is essential. When the incubation period of 15 min was used for assaying the inhibition, as generally done for the other types of CA inhibitors, only a weak inhibition was observed (data not shown). Furthermore, it appears to be the case with coumarins and related bioisosteres. […]

For assay [4], the target named is T1, CA II. Briefly: biochemical. Also noted: stopped-flow CO2 hydration assay of recombinant human CA isoforms, inhibition constant. To be noted: 6 h incubation. On the procedure:
as §1

Some results are limits rather than exact numbers.

T2 sequence (P00915 2-261): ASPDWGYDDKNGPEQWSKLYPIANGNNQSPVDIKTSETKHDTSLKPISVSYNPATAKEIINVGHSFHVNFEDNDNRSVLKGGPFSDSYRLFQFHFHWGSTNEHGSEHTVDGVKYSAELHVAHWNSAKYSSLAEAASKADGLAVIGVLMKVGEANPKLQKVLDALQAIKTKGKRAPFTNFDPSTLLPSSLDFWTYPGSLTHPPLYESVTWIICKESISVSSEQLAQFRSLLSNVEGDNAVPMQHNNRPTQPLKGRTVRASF

Take `CCOC(=O)c1ccc(-c2ccc3c(c2)C=CCP(=O)(O)O3)cc1` [8c, Ethyl 4–(2-hydroxy-2-oxido-3H-benzo[f][1,2]oxaphosphepin-7-yl)benzoate]: the Ki at CA II [1] and on CA I [2] was more than 100 µM throughout.

As for “7–(3-Fluorophenyl)-2-hydroxy-3H-benzo[f][1,2]oxaphosphepine 2-oxide [8h]”, the Ki on CA II [1] (6 h incubation) and at CA I [2] (6 h incubation) was more than 100 µM throughout.

Regarding `COc1ccc(-c2cccc3c2OP(=O)(O)CC=C3)cc1` [10b, 2-Hydroxy-9–(4-methoxyphenyl)-3H-benzo[f][1,2]oxaphosphepine 2-oxide], the Ki at CA II [1] and on CA I [2] was more than 100 µM each time.

On to `O=P1(O)CC=Cc2ccc(-c3cc(Cl)cc(Cl)c3)cc2O1` [9e, 8–(3,5-Dichlorophenyl)-2-hydroxy-3H-benzo[f][1,2]oxaphosphepine 2-oxide], for which the Ki at CA II [1] and on CA I [2] was more than 100 µM in each case.

As to `CC(C)(C)c1ccc(-c2ccc3c(c2)C=CCP(=O)(O)O3)cc1` [8l, 7–(4-(tert-Butyl)phenyl)-2-hydroxy-3H-benzo[f][1,2]oxaphosphepine 2-oxide], the Ki at CA II [1] and on CA I [2] was more than 100 µM in each case.

Consider `O=P1(O)CC=Cc2cc(-c3ccccc3)ccc2O1` [8a, 2-Hydroxy-7-phenyl-3H-benzo[f][1,2]oxaphosphepine 2-oxide], for which the Ki at CA II [1] and at CA I [2] was more than 100 µM throughout.

On to `COc1ccc(-c2ccc3c(c2)OP(=O)(O)CC=C3)cc1` [9b, 2-Hydroxy-8–(4-methoxyphenyl)-3H-benzo[f][1,2]oxaphosphepine 2-oxide], for which the Ki at CA II [1] and on CA I [2] was more than 100 µM throughout.

For `O=[N+]([O-])c1cccc(-c2ccc3c(c2)C=CCP(=O)(O)O3)c1` [8k, 2-Hydroxy-7–(3-nitrophenyl)-3H-benzo[f][1,2]oxaphosphepine 2-oxide], the Ki on CA II [1] and on CA I [2] was more than 100 µM throughout.

Consider `O=[N+]([O-])c1ccccc1-c1cccc2c1OP(=O)(O)CC=C2` [10f, 2-Hydroxy-9–(2-nitrophenyl)-3H-benzo[f][1,2]oxaphosphepine 2-oxide], for which the Ki at CA II [1] and at CA I [2] was more than 100 µM throughout.

Take `O=P1(O)CC=Cc2cccc(-c3ccc(Cl)cc3)c2O1` [10d, 9–(4-Chlorophenyl)-2-hydroxy-3H-benzo[f][1,2]oxaphosphepine 2-oxide]: the Ki at CA II [1] and at CA I [2] was more than 100 µM throughout.

For `O=P1(O)CC=Cc2cc(-c3ccc(C(F)(F)F)cc3)ccc2O1` [8f, 2-Hydroxy-7–(4-(trifluoromethyl)phenyl)-3H-benzo[f][1,2]oxaphosphepine 2-oxide], the Ki on CA II [1] and on CA I [2] was more than 100 µM each time.

As for `CCOC(=O)c1ccc(-c2cccc3c2OP(=O)(O)CC=C3)cc1` [10c, Ethyl 4–(2-hydroxy-2-oxido-3H-benzo[f][1,2]oxaphosphepin-9-yl)benzoate], the Ki on CA II [1] and on CA I [2] was more than 100 µM throughout.

Consider `O=P1(O)CC=Cc2cccc(-c3ccccc3)c2O1` [10a, 2-Hydroxy-9-phenyl-3H-benzo[f][1,2]oxaphosphepine 2-oxide], for which the Ki at CA II [1] and at CA I [2] was more than 100 µM in each case.

With `CCOC(=O)c1ccc(-c2ccc3c(c2)OP(=O)(O)CC=C3)cc1` [9c, Ethyl 4–(2-hydroxy-2-oxido-3H-benzo[f][1,2]oxaphosphepin-8-yl)benzoate], the Ki at CA II [1] and at CA I [2] was more than 100 µM in each case.

For the molecule `COC(=O)c1cccc(-c2ccc3c(c2)C=CCP(=O)(O)O3)c1` [8j, Methyl 3–(2-hydroxy-2-oxido-3H-benzo[f][1,2]oxaphosphepin-7-yl)benzoate], the Ki at CA II [1] and on CA I [2] was more than 100 µM throughout.

In the case of `O=P1(O)CC=Cc2ccc(Br)cc2O1` [7b, 8-Bromo-2-hydroxy-3H-benzo[f][1,2]oxaphosphepine 2-oxide], the Ki on CA II [1] and at CA I [2] was more than 100 µM throughout.

As to `O=P1(O)CC=Cc2cc(-c3cccc(F)c3)ccc2O1` [8h, 7-(3-Fluorophenyl)-2-hydroxy-3H-benzo[f][1,2]oxaphosphepine 2-oxide], the Ki at CA I [3] and at CA II [4] was more than 100 µM each time.

For the molecule `O=P1(O)CC=Cc2ccc(-c3ccccc3)cc2O1` [9a, 2-Hydroxy-8-phenyl-3H-benzo[f][1,2]oxaphosphepine 2-oxide], the Ki on CA II [1] and on CA I [2] was more than 100 µM each time.

Turning to `COc1ccc(-c2ccc3c(c2)C=CCP(=O)(O)O3)cc1` [8b, 2-Hydroxy-7–(4-methoxyphenyl)-3H-benzo[f][1,2]oxaphosphepine 2-oxide], the Ki on CA II [1] and on CA I [2] was more than 100 µM in each case.

As for `O=P1(O)CC=Cc2ccc(-c3ccc(Cl)cc3)cc2O1` [9d, 8–(4-Chlorophenyl)-2-hydroxy-3H-benzo[f][1,2]oxaphosphepine 2-oxide], the Ki at CA II [1] and at CA I [2] was more than 100 µM each time.

With `O=P1(O)CC=Cc2cc(-c3ccc(Cl)cc3)ccc2O1` [8e, 7–(4-Chlorophenyl)-2-hydroxy-3H-benzo[f][1,2]oxaphosphepine 2-oxide], the Ki on CA II [1] and on CA I [2] was more than 100 µM in each case.

Turning to `O=P1(O)CC=Cc2cccc(-c3cc(Cl)cc(Cl)c3)c2O1` [10e, 9–(3,5-Dichlorophenyl)-2-hydroxy-3H-benzo[f][1,2]oxaphosphepine 2-oxide], the Ki at CA II [1] and at CA I [2] was more than 100 µM throughout.

As to `O=[N+]([O-])c1ccccc1-c1ccc2c(c1)OP(=O)(O)CC=C2` [9f, 2-Hydroxy-8–(2-nitrophenyl)-3H-benzo[f][1,2]oxaphosphepine 2-oxide], the Ki on CA II [1] and on CA I [2] was more than 100 µM each time.

As for `O=P1(O)CC=Cc2cc(-c3ccc(F)cc3)ccc2O1` [8d, 7–(4-Fluorophenyl)-2-hydroxy-3H-benzo[f][1,2]oxaphosphepine 2-oxide], the Ki on CA II [1] and at CA I [2] was more than 100 µM throughout.

On to “2-Hydroxy-7-(o-tolyl)-3H-benzo[f][1,2]oxaphosphepine 2-oxide [8i]”, for which the Ki at CA II [1] ([…] h incubation) and on CA I [2] ([…] h incubation) was more than 100 µM in each case.

Turning to `O=P1(O)CC=Cc2cc(-c3cc(Cl)cc(Cl)c3)ccc2O1` [8g, 7–(3,5-Dichlorophenyl)-2-hydroxy-3H-benzo[f][1,2]oxaphosphepine 2-oxide], the Ki on CA II [1] and at CA I [2] was more than 100 µM throughout.
